The source of these data is patent publication US11759454B2, “Diazole lactams” (CHEMOCENTRYX, INC., priority 2012, dated 2023).

One may read the IC50 as the concentration that inhibits the measured activity by half.

Experiment [1] has as its system inflammatory cells recruited to the inflamed synovial fluid of the knee joints. In words: Rabbit model of destructive joint inflammation (rabbit LPS study). Format: in vivo. Particulars: female New Zealand rabbits, intra-articular LPS 10 ng, oral dosing in 1% methocel 2 h before and 4 h after LPS, lavage at 16 h. The protocol:
a) Rabbit Model of Destructive Joint Inflammation
A rabbit LPS study was conducted essentially as described in Podolin, et al. J. Immunol. 169(11):6435-6444 (2002). Female New Zealand rabbits (approximately 2 kilograms) were treated intra-articularly in both knees with LPS (10 ng). The compound of interest, for example 1.016, (formulated in 1% methocel) or vehicle (1% methocel) was dosed orally at a 5 ml/kg dose volume at two times (2 hours before the intra-articular LP S injection and 4 hours after the intra-articular LP S injection). Sixteen hours after the LP S injection, knees were lavaged and cells counts were performed. Beneficial effects of treatment were determined by reduction in the number of inflammatory cells recruited to the inflamed synovial fluid of the knee joints.

A further experiment deals with T1, CCR1 (Homo sapiens, UniProt P32246).
T1 construct: host or cells: THP-1 cells (or freshly isolated monocytes)
T1 sequence (P32246 1-355): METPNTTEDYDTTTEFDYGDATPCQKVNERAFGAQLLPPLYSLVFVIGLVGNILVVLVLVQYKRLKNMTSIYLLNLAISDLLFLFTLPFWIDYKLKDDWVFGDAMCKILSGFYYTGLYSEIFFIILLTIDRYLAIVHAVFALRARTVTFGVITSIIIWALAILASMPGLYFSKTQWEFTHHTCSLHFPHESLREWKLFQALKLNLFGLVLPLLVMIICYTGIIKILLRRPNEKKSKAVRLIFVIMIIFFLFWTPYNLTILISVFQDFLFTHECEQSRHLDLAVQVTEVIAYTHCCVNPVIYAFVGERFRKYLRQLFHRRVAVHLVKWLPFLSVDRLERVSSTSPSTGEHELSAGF
In words: Chemotaxis assay (inhibition of CCR1 mediated migration). It is filed as cell-based. To be noted: chemotaxis of THP-1 or monocyte cells toward CCR1 chemokine ligand (MIP-1α, CCL15/leukotactin); read-out: Avg Mig IC50. The method, then:
THP-1 cells were obtained from ATCC (TIB-202) and cultured as a suspension in RPMI-1640 medium supplemented with 2 mM L-glutamine, 1.5 g/L sodium bicarbonate, 4.5 g/L glucose, 10 mM HEPES, 1 mM sodium pyruvate, 0.05% 2-mercaptoethanol and 10% FBS. Cells were grown under 5% CO2/95% air, 100% humidity at 37° C. and subcultured twice weekly at 1:5 (cells were cultured at a density range of 2×10^5 to 2×10^6 cells/mL) and harvested at 1×10^6 cells/mL. THP-1 cells express CCR1 and can be used in CCR1 binding and functional assays.
Chemotaxis assays were performed using 5 μm pore polycarbonate, polyvinylpyrrolidone-coated filters in 96-well chemotaxis chambers (Neuroprobe; Gaithersburg, Md.) using chemotaxis buffer (Hank's balanced salt solution (HBSS) and 1% FBS). CCR1 chemokine ligands (i.e., MIP-1α, CCL15/Leukotactin; R&D Systems; Minneapolis, Minn.) are use to evaluate compound mediated inhibition of CCR1 mediated migration. Other chemokines (i.e., SDF-1α; R&D Systems; Minneapolis, Minn.) are used as specificity controls. The lower chamber was loaded with 29 μl of chemokine (i.e., 0.1 nM CCL15/Leukotactin) and varying amounts of compound; the top chamber contained 100,000 THP-1 or monocyte cells in 20 μl. The chambers were incubated 1-2 hours at 37° C., and the number of cells in the lower chamber quantified either by direct cell counts in five high powered fields per well or by the CyQuant assay (Molecular Probes), a fluorescent dye method that measures nucleic acid content and microscopic observation.
One of the primary functions of chemokines is their ability to mediate the migration of chemokine receptor-expressing cells, such as white blood cells. To confirm that a compound of interest inhibited not only CCR1 specific binding and signaling (at least as determined by calcium mobilization assays), but also CCR1 mediated migration, a chemotaxis assay was employed. THP-1 myelomonocytic leukemia cells, which resemble monocytes, as wells as freshly isolated monocytes, were used as targets for chemoattraction by CCR1 chemokine ligands (i.e., MIP-1α, CCL15/leukotactin). Cells were placed in the top compartment of a microwell migration chamber, while MIP-1α (or other potent CCR1 chemokine ligand) and increasing concentrations of a compound of interest was loaded in the lower chamber. […] To ascertain a compound of interest's affinity for CCR1 as well as to confirm its ability to inhibit CCR1 mediated cell migration, inhibitory activity was titered over a 1×10^−10 to 1×10^−4 M range of compound concentrations in this chemotaxis assay. In this assay, the amount of compound was varied; while cell number and chemokine agonist concentrations were held constant. After the chemotaxis chambers were incubated 1-2 hours at 37° C., the responding cells in the lower chamber were quantified by labeling with the CyQuant assay (Molecular Probes), a fluorescent dye method that measures nucleic acid content, and by measuring with a Spectrafluor Plus (Tecan). The computer program Prism from GraphPad, Inc. (San Diego, Calif.) was used to calculate IC50 values. IC50 values are those compound concentrations required to inhibit the number of cells responding to a CCR1 agonist by 50%.

Regarding `CC(C)c1c(N2CCC(n3cnc(C(F)(F)F)c3)C2=O)cnn1-c1ccc(F)cc1` (centres unmarked) [Compound 1.016], the “reduction in the number of inflammatory cells recruited to the inflamed synovial fluid of the knee joints” value in experiment [1] is listed as “significant reduction in recruited inflammatory cells”. For the same compound, on CCR1, the concentration for half-maximal inhibition (IC50) lay in the range of 0.1 to 20 µM.
